# Columns and labels:
# Assay type in all cases: cell-based
# [1] = test system: Mengo virus on cell line Hep-2; test: Antiviral effect: inhibition of the cytopathic effect of Mengo virus on cell line Hep-2; conditions: 24 h pre-incubation; for Antiviral effect, 1: experiment 1; for Antiviral effect, 2: experiment 2; for Antiviral effect, 3: experiment 3; for Antiviral effect, Mean: mean of 3
# Protocol: (§1) Then the cells were washed with saline solution and infected with […] of Mengo virus, provide by Institute of Molecular Biology, University of Zurich, which is multiplied in the cell line L929 murine fibroblasts. 18 h later degree of cell destruction was measured by fixation and staining, generally with crystal violet, for reading of cytophatic effect was used a photometer Ultramicroanalytical System (SUMA). A computer program in Pascal UCSD language for the microcomputer system was developed for all calculations and corrections (Ferrero et al., 1994, Biotecnologia Aplicada. Vol. 1:). In this case serial dilution's of human γ-IFN 70 000 IU/ml (MRI, Freeze-dried Reference Human Recombinant Gamma Interferon) was used as standard in order to define unit of antiviral activity. For this reason the antiviral protection shown by the peptide is related to International Units of γ-IFN (Ul/ml). As a negative control were used different peptides from proteins that bind endotoxin. LPS at 10 ng/ml was used as a positively control because is well known that it induced the production of IFNs (Manthey et al., 1994, J. Immunology. Vol. 153: 2653-2663). One unit of antiviral activity is define as the quantity of IFN able to produce an 50% inhibition of the viral replication.
# [2] = test system: human mononuclear cells; test: Antiviral effect on Hep-2 cells of supernatant from human mononuclear cells stimulated with peptide; conditions: for Antiviral effect of supernatant, 1: supernatant on Hep-2, experiment 1; for Antiviral effect of supernatant, 2: supernatant on Hep-2, experiment 2; for Antiviral effect of supernatant, 3: supernatant on Hep-2, experiment 3; for Antiviral effect of supernatant, Mean: supernatant on Hep-2, mean of 3
# Protocol: as §1
# Venous blood was obtained from healthy volunteers and Ficoll-Hypaque centrifugation, fractionated mononuclear cells. The mononuclear cells were washed and resuspended in endotoxin-free RPMI-1640 culture medium supplemented with 10% fetal calf serum. Concentration of 2×10^6 cells/ml were aliquoted into 24-well microtiter plates (Nunc, Denmark). The cells were then incubated with 14 and 28 μg/ml of different peptides: Limulus anti-LPS factor31-52 (LALF), Lipopolysaccharide Binding Protein86-99 (LBP) and 18 kDa Cationic Antimicrobial Protein108-128 (CAP-18), at 37° C. for 18 hours in 5% CO2. The cells were centrifuged at 3000 rpm for 5 min and then serial dilutions of supematants were assays for antiviral activity using the procedures described in the example 2.
# [3] = test system: TNFα from human mononuclear cells; test: TNF-α synthesis by human mononuclear cells (ELISA of supernatant); conditions: 18 h, mean of three donors
# Protocol: Venous blood was obtained from healthy volunteers and Ficoll-Hypaque centrifugation, fractionated mononuclear cells. The mononuclear cells were washed and resuspended in endotoxic-free RPMI 1640 medium supplemented with 10% fetal calf serum. 30×10^6 cells were aliquoted into plates p-60 (Nunc, Denmark). The cells were incubated with 14 or 28 μg/ml LALF at 37° C. for 18 hours in 5% CO2 and then centrifuged at 3000 rpm during 5 min. The synthesis of TNFα in the supernatant was determined by specific enzyme-linked immunoadsorbent assay (ELISA), kindly provided by Dr. W. Buurman (University Hospital Maastrich, The Netherlands).
# [4] = mononuclear cells stimulated with 14 μg/ml for 18 h
# [5] = mononuclear cells stimulated with 28 μg/ml for 18 h
substance,measurement,setting,value
CAP-18 [reference compound],"Antiviral effect, 1","[1]; Hep-2, 14 μg/ml",9 IU/ml γ-IFN
same,"Antiviral effect, 2","[1]; Hep-2, 14 μg/ml",8.7 IU/ml γ-IFN
same,"Antiviral effect, 3","[1]; Hep-2, 14 μg/ml",9.2 IU/ml γ-IFN
same,"Antiviral effect, Mean","[1]; Hep-2, 14 μg/ml",8.9 IU/ml γ-IFN
same,"Antiviral effect, 1","[1]; Hep-2, 28 μg/ml",12.2 IU/ml γ-IFN
same,"Antiviral effect, 2","[1]; Hep-2, 28 μg/ml",9 IU/ml γ-IFN
same,"Antiviral effect, 3","[1]; Hep-2, 28 μg/ml",9 IU/ml γ-IFN
same,"Antiviral effect, Mean","[1]; Hep-2, 28 μg/ml",10.9 IU/ml γ-IFN
same,"Antiviral effect of supernatant, 1",[2]; [4],7.8 IU/ml γ-IFN
same,"Antiviral effect of supernatant, 2",[2]; [4],8 IU/ml γ-IFN
same,"Antiviral effect of supernatant, 3",[2]; [4],11 IU/ml γ-IFN
same,"Antiviral effect of supernatant, Mean",[2]; [4],8.93 IU/ml γ-IFN
same,"Antiviral effect of supernatant, 1",[2]; [5],8.2 IU/ml γ-IFN
same,"Antiviral effect of supernatant, 2",[2]; [5],9 IU/ml γ-IFN
same,"Antiviral effect of supernatant, 3",[2]; [5],9.6 IU/ml γ-IFN
same,"Antiviral effect of supernatant, Mean",[2]; [5],8.93 IU/ml γ-IFN
same,TNF - α,[3]; 14 μg/ml,0.76 ng/mL
same,TNF - α,[3]; 28 μg/ml,0.75 ng/mL

# — patent US6632793B1, “Immunological activity for a peptide of the limulus anti-LPS factor” (Centro de Ingenieria Genetica y Biotecnologia, priority 1997, dated 2003)
